From patent US4070484A, “Antiallergic composition containing aromatic carboxylic amide derivatives and method of using the same” (Kissei Pharmaceutical Co., Ltd., priority 1973, dated 1978)
Entries after “also recorded” stand apart in the source; their conditions may differ. Where two headings read alike, the source gives them in different places.

Columns and labels:
[1] = tested on: homologous passive cutaneous anaphylaxis (antigen-antibody reaction); test: Homologous Passive Cutaneous Anaphylaxis in Rats; format: in vivo, rat (Wistar male); conditions: Rattus norvegicus, po; 200 mg/kg orally 2 hours prior to the injection of antigen
Description: Wistar male rats weighing 120-150 g were used in this experiment. […]. Normal rats were sensitized passively with dilution of the antibody by means of intradermal injection. After 48 hours of the sensitization, the mixture of antigen (EA) and evens blue was injected intravenously. The animals were killed by a blow on the head 30 minutes after the injection, and then the blue spot resulted from the antigen-antibody reaction was measured photometrically.
A given test compound dissolved in 1 % NaHCO3 solution was administrated in a dose of 200 mg/kg orally 2 hours prior to the injection of antigen, while only the vehicle solution was administered to the control group.
The efficacy of the test compounds to inhibit the homologous passive cutaneous anaphlaxis was compared with the value (%) calculated using the following formula: [formula] wherein A stands for the amount of leaked dye in control group and B for the amount of leaked dye in the group administered with a given test compound.

[2] = tested on: sensitized mesenteric mast cells; test: Effect on the Disruption of the Sensitized Mast Cells; format: cell-based, rat; conditions: 10^-5 g/ml, 5 minutes prior to the treatment of antigen
Description: Mesenteric mast cells isolated from normal rats were sensitized passively by means of incubation with rat reaginic antibody at 37° C. After termination of the incubation, the specific antigen (DNP-Ascaris) was added to the incubation medium, then these mast cells in mesentery were fixed with formalin and stained with 0.1 % toluidine blue (in acetic acid buffer; pH: 4.6). The number of mast cells disrupted as a consequence of the antigen-antibody reaction were counted under a microscope. The number of the mast cells disrupted were also counted without the addition of the specific antigen.
A given test compound dissolved in 1 % NaHCO3 solution was added to the incubation medium at a concentration of 10^-5 g/ml, 5 minutes prior to the treatment of antigen, while only the vehicle was added to the control group.
The efficacy of the test compounds to inhibit the mast cell disruption was compared with the value (%) calculated using the following formula: [formula] wherein P stands for the percentage of disrupted mast cells in the control group, Q for the percentage of mast cells disrupted spontaneously and R for the percentage of disrupted mast cells in the group treated with a given test compound.

[3] = tested on: experimental asthma in rats; test: Experimental Asthma in Rats; format: in vivo, rat; conditions: for minimal effective dose: Rattus norvegicus, oral, 2 hours before antigen injection
Description: Twenty normal male rats weighing 120-150 g were divided into four groups each consisting of five rats. All of the rats were sensitized passively by means of intravenous injection of rat reaginic antibody. After a lapse of 22 hours of sensitization, 5 milliliters of a 1% aqueous solution of NaHCO3 containing (3',4'-dimethoxycinnamoylamino)-benzoic acid* in a dose of 0 mg/kg (control), 5 mg/kg, 10 mg/kg and 20 mg/kg were orally administered to the rats in each group, and then canulation was begun on both the trachea and the common carotid artery on the rats. The rate and volume of respiration and systemic blood pressure were recorded simultaneously on a polygraph.
After 2 hours of administration, the challenge symptoms were subjected, by means of injection of the antigen, and the results are shown in the drawing attached herewith.

[4] = Acute Toxicity (LD50) in rats; format: in vivo; conditions: rat, in vivo, mortality on the 8th day
Description: (§1) The median lethal dose (LD50) of the new aromatic carboxylic acid amide derivatives of this invention were determined in dd-stain male and female mice (6 weeks old) by oral administration and in Wistar strain male and female rats (7 weeks old) by oral and intraperitoneal administration. Each animal selected for the experiment was maintained in an air conditioned room at a temperature of 22° ± 1° C and a relative humidity of 55 ± 5% during the full course of the experiment. All animals were fed compressed pellets (CE-2 type produced by Japan CLEA Co.) and water was available ad libitum by bottle. Five groups of ten animals for each administration route were used.
(§2) Since these compounds were isoluble in water, they were suspended in a 0.5% aqueous solution of carboxymethylcellulose at each dosage level. The administrative volume of each agent to 10 g body weight mouse was 0.2 ml for oral administration, while that to 100g body weight of rat was 0.5 ml for intraperitoneal and oral administrations.
(§3) The LD50 values were calculated from the mortality on the 8th day by the Litchfield-Wilcoxon's method.

[5] = tested on: Wistar strain rats; test: Acute Toxicity (LD50) in rats; format: in vivo; conditions: mortality on the 8th day, 11520 min
Description: as §1, §2, §3

[6] = Acute Toxicity (LD50) in mice; format: in vivo; conditions: mouse, in vivo, po, mortality on the 8th day
Description: as §1, §2, §3

[7] = tested on: dd-stain mice; test: Acute Toxicity (LD50) in mice; format: in vivo; conditions: oral, mortality on the 8th day, 11520 min
Description: as §1, §2, §3

[8] = tested on: adult patients having asthma bronchiale; test: Clinical trial for adults; format: in vivo, human; conditions: oral
Description: A clinical trial was made by administering 2-(3',[…]-dimethoxycinnamoylamino)-benzoic acid orally to adult patients having asthma bronchiale. These patients having asthma bronchiale were chosen from those suffering from atopic and mixed forms. Determination of the effect were integrally judged from the extent of subjective symptoms (the number of asthma attacks, the degree of dyspnea, wheeze, the number of cough attacks and sputum expectoration), objective findings (dry rale) and pulmonary function test.
(§4) The effect was evaluated by five grades of "remarkable improvement", "moderate improvement", "slight improvement", "unchanged", and "aggravated". A daily dose (400-600 mg) of the active compound in the powdery preparation obtained in Example 12 was administered orally to patients in equal portions four times daily, ie, after every meal and before sleeping.

[9] = tested on: child patients having asthma bronchiale; test: Clinical trial for children; format: in vivo, human; conditions: oral
Description: A clinical trial was made by orally administering Compound No. 33 to child patients having asthma bronchiale. Child patients having asthma bronchiale in atopic and mixed forms were chosen for the clinical trial. Determination of the effect was integrally judged from the extent of subjective symptoms (the number of asthma attacks, the degree of dyspnea, wheeze, the number of cough attacks and sputum expectoration), objective findings (dry rale) and pulmonary function test.
as §4, with “"unchanged"and” for “"unchanged", and”, “(100-200” for “(400-600”, “a day, i.e.,” for “daily, ie,”

[10] = tested on: antiallergic action, oral administration to mammalia; conditions: known art; cited from earlier work
[11] = tested on: mast cells; conditions: known art, cited from earlier work

COc1ccc(C=CC(=O)Nc2ccccc2C(=O)O)cc1OC [Compound No. 33, N-(3',4'-dimethoxycinnamoyl)-anthranilic acid]
inhibition at 200 mg/kg [1]: 46.1%
Inhibition percentage (mast cell disruption) [2]: 33%
minimal effective dose ([3]; read-out: dose showing inhibition of decrease in the rate of respiration): ≥ 5 mg/kg
minimal effective dose ([3]; read-out: dose showing inhibition of decrease in the volume of respiration): ≥ 10 mg/kg
Asthmatic symptoms resulting from the challenge ([3]; oral 5, 10, 20 mg/kg): observed in the control group only
effect on depression of blood pressure just after the challenge ([3]; oral 5, 10, 20 mg/kg, just after the challenge): no inhibiting effect
effect on subsequent depression of blood pressure ([3]; oral 5, 10, 20 mg/kg, subsequent depression): showed an inhibiting effect on subsequent depression
LD50 at 192 h ([4]; ip, intraperitoneal): 385 mg/kg
LD50 at 192 h ([4]; po): 1850 mg/kg
LD50 ([5]; intraperitoneal): 338 mg/kg
LD50 ([5]; oral): 2030 mg/kg
LD50 at 192 h [6]: 705 mg/kg
LD50 [7]: 500 mg/kg
Evaluation ([8]; 400mg × 14 days): slight imp.
Side effect ([8]; 400mg × 14 days): none
Evaluation ([8]; 400mg × 21 days): mod. impr.
Side effect ([8]; 400mg × 21 days): none
Side effect ([8]; 600mg × 14 days): none
Evaluation ([8]; 600mg × 14 days, row): slight imp; also recorded: mod. impr
Evaluation ([8]; 600mg × 20 days): unchanged
Side effect ([8]; 600mg × 20 days): none
Evaluation ([8]; 600mg × 21 days): unchanged
Side effect ([8]; 600mg × 21 days): none
Evaluation ([8]; 600mg × 24 days): mod. impr.
Side effect ([8]; 600mg × 24 days): none
Evaluation ([9]; 200 mg × 15 days): mod. impr.
Side effect ([9]; 200 mg × 15 days): none
Evaluation ([9]; 200 mg × 29 days): slight impr.
Side effect ([9]; 200 mg × 29 days): none
Evaluation ([9]; 200 mg × 35 days): slight imp.
Side effect ([9]; 200 mg × 35 days): none

O=C(O)c1cc(=O)c2c(OCC(O)COc3cccc4oc(C(=O)O)cc(=O)c34)cccc2o1 [Disodium cromoglycate]
Inhibition percentage (mast cell disruption) [2]: 16%
pharmacological effect when administered orally (in words) [10]: loses its pharmacological effect when administered orally
inhibition of mast cell disruption (in words) [11]: inhibitor of mast cell disruption
inhibition of mast cell disruption (in words) ([11]; listed as disodium cromoglycate): inhibits the disruption of mast cells and release therefrom of chemical mediators
